The MBC is the smallest concentration meeting the test's criterion for killing. A low value points to greater bactericidal potency. Usually MIC stands for the lowest concentration that inhibits growth of the organism. A high value points to a less susceptible organism.

We go through two compounds from PMC11013662, “New Thiosemicarbazide Derivatives with Multidirectional Biological Action” (Molecules, 2024).

In brackets after ≈: the same amount, converted by molar mass.

One assay has as its system Gram-positive bacteria. The assay can be described thus: Broth microdilution MIC / MBC, summary over Gram-positive strains. It counts as cell-based. The protocol:
(§1) The microdilution method was used to determine the MIC values of newly synthesized compounds. The antimicrobial activity of the thiosemicarbazides series was tested on ten reference bacterial strains purchased from the American Type Culture Collection (ATCC). Seven Gram-positive reference strains (S. aureus ATCC 29213, S. aureus ATCC 43300, S. aureus ATCC 6538, S. aureus ATCC 25923, S. epidermidis ATCC 12228, M. luteus ATCC 10240, and B. cereus ATCC 10876) and three Gram-negative reference bacteria (K. pneumoniae ATCC 13883, E. coli ATCC 25922, S. typhimurium ATCC 14028) were used. […]
(§2) A 96-well microtiter plate and microbroth two-fold dilution method was used to determine the minimum inhibitory concentration (MIC) according to the EUCAST (European Committee on Antimicrobial Susceptibility Testing) reference recommendation. […] After incubation, the growth of bacteria was monitored by a Biotek ELx800 (Biokom, Janki, Poland) spectrophotometer at 600 nm (OD600). […]
(§3) The in vitro antimicrobial activity of the tested compounds was determined by the MIC, which was defined as the lowest concentration of the compound tested at which no visible growth of the test bacteria was observed. […] MBC was determined after the broth dilution period of an MIC test has been completed. […] The MBC values were determined by observing the first clear area on the agar plate that has no observable bacterial growth.
(In broth dilution the organism is exposed to a series of concentrations in liquid medium.)

The subject of assay [1] is S. aureus reference strains. In words: Broth microdilution MIC / MBC, summary over S. aureus strains. It is filed as cell-based, Staphylococcus aureus. On the procedure: as §1, §2, §3
The test system of assay [2] is Staphylococcus spp. strains. The assay can be described thus: Broth microdilution MIC / MBC, staphylococci. It is filed as cell-based. On the procedure: as §1, §2, §3

In the assay on Gram-positive bacteria, `O=C(NNC(=S)Nc1cccc(F)c1)c1cccc(C(F)(F)F)c1` [Compound 3e, 1-(3-Trifluoromethylbenzoyl)-4-(3-fluorophenyl)thiosemicarbazide] had an MBC above 1000 µg/mL and an MIC range of 7.8 to 31.25 µg/mL. In addition, the MIC range in assay [1] (S. aureus ATCC 43300 MRSA and all MSSA reference strains) was 15.63 to 31.25 µg/mL.

On to `O=C(NNC(=S)Nc1cccc(Cl)c1)c1cccc(C(F)(F)F)c1` [Compound 3a, 4-(3-Chlorophenyl)-1-(3-trifluoromethylbenzoyl)thiosemicarbazide], for which, in assay [2] (against staphylococci, bacteriostatic), the MBC/MIC ratio was above 4. For the same compound, the MIC in assay [2] (all Staphylococcus spp. strains except MRSA ATCC 43300) amounted to 1.95 µg/mL (≈ 5.22 µM). Moreover, the minimal bactericidal concentration (MBC) in assay [1] (Staphylococcus aureus, all tested S. aureus reference strains) was 1000 µg/mL (≈ 2680 µM).
